The structures appear in SMILES notation.

What is called IC50 is the midpoint of a concentration-inhibition curve. Read a high IC50 as weaker potency in that assay.

In one test the test system is MCF7. Nature of the test: Cytotoxicity against Homo sapiens (human) MCF7 cells after 48 hr by MTT assay. The class given is cell-based. The conditions noted are these: MCF7, 48 h.
The test system of a further test is Entamoeba histolytica. Kind of test: Antiamoebic activity against Entamoeba histolytica HM-1:IMSS after 72 hr by eosin stain-based spectrophotometric analysis. The class given is functional, organism-based.

On to `Fc1ccc(N2CCN(Cn3nc(-c4ccncc4)oc3=S)CC2)cc1`, for which the results for the IC50 in the test with MCF7 and with Entamoeba histolytica were above 250000 nM and 245 nM, respectively.

For `S=c1oc(-c2ccncc2)nn1CN1CCN(c2ccccn2)CC1`, half-maximal inhibition with Entamoeba histolytica (IC50) required 2820 nM. This counts as single-digit micromolar.

As for `FC(F)(F)c1ccccc1N1CCN(Cn2nc(-c3ccncc3)oc2=S)CC1`, in the test with Entamoeba histolytica, half-maximal inhibition (IC50) was put at 2870 nM.

As for `S=c1oc(-c2ccncc2)nn1CN1CCN(c2cccc(Cl)c2)CC1`, it took 2570 nM to reach half-maximal inhibition with Entamoeba histolytica (IC50).

For `S=c1oc(-c2ccncc2)nn1CN1CCN(Cc2ccc3c(c2)OCO3)CC1`, half-maximal inhibition with Entamoeba histolytica (IC50) was put at 3620 nM.

Regarding `CN1CCN(Cn2nc(-c3ccncc3)oc2=S)CC1`, the IC50 in the test on Entamoeba histolytica came to 5110 nM. This IC50 and that of the compound before are within 1.5-fold of each other.

As to `S=c1oc(-c2ccncc2)nn1CN1CCN(Cc2ccccc2)CC1`, in the test on Entamoeba histolytica, 3400 nM corresponded to half-maximal inhibition (IC50).

As to `COc1ccccc1N1CCN(Cn2nc(-c3ccncc3)oc2=S)CC1`, the IC50 with MCF7 is above 250000 nM; in the test on Entamoeba histolytica, 1060 nM.

Take `S=c1oc(-c2ccncc2)nn1CN1CCN(c2ccccc2)CC1`: inhibition in the test with Entamoeba histolytica was half-maximal at 3470 nM (IC50).

On to `CCN1CCN(Cn2nc(-c3ccncc3)oc2=S)CC1`, for which the IC50 with MCF7 was above 250000 nM; in the test with Entamoeba histolytica, 327 nM.
